Results from ChEMBL document CHEMBL1201862, “PubChem BioAssay data set” (2004).
The source made the active and inactive calls.

Tests used:
[1] = biological target: T1, Apoptotic protease-activating factor 1 (Homo sapiens, UniProt O14727); format: functional
T1 sequence (O14727 whole entry): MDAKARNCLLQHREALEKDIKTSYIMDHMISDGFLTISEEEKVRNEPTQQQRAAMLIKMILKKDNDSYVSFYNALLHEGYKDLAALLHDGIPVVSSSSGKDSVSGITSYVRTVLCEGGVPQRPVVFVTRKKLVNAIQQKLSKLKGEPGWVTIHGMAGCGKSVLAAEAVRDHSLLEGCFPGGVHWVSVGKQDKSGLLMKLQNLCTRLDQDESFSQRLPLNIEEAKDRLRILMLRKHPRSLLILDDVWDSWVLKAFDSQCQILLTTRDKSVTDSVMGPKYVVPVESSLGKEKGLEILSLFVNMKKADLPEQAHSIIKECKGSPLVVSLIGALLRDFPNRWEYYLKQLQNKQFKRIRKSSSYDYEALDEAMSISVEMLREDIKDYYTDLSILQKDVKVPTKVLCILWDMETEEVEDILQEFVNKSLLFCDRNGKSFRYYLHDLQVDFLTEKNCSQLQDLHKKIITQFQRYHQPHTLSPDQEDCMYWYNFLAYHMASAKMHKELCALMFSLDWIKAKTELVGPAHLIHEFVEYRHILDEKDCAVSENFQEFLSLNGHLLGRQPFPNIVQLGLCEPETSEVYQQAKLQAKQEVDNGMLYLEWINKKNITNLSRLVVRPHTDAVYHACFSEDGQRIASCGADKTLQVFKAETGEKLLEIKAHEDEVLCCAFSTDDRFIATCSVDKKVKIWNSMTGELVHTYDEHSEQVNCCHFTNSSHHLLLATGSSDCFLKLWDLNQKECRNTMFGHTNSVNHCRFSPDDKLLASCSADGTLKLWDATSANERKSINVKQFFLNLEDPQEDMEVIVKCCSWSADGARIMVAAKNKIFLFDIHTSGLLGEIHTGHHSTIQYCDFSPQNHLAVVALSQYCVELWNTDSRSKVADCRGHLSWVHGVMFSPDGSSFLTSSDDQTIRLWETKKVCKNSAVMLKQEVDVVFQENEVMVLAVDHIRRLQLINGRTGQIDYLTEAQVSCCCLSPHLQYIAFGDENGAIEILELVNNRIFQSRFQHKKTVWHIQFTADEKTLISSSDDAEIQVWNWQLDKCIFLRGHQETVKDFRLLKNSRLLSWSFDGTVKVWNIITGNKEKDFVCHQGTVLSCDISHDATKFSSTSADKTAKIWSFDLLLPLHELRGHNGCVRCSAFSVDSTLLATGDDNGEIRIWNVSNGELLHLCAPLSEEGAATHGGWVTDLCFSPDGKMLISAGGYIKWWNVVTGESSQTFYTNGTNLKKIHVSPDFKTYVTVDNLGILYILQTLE

Protein RecA = biological target: T2, Protein RecA (Mycobacterium tuberculosis, UniProt P9WHJ3); assay: Fluorescence Cell-Free Homogeneous Dose Retest to Identify Inhibitors of RecA-Intein Splicing Activity. [Related pubchem assays (depositor defined):AID2097, AID2223, AID489010, AID492950]; format: functional
T2 sequence (P9WHJ3 whole entry): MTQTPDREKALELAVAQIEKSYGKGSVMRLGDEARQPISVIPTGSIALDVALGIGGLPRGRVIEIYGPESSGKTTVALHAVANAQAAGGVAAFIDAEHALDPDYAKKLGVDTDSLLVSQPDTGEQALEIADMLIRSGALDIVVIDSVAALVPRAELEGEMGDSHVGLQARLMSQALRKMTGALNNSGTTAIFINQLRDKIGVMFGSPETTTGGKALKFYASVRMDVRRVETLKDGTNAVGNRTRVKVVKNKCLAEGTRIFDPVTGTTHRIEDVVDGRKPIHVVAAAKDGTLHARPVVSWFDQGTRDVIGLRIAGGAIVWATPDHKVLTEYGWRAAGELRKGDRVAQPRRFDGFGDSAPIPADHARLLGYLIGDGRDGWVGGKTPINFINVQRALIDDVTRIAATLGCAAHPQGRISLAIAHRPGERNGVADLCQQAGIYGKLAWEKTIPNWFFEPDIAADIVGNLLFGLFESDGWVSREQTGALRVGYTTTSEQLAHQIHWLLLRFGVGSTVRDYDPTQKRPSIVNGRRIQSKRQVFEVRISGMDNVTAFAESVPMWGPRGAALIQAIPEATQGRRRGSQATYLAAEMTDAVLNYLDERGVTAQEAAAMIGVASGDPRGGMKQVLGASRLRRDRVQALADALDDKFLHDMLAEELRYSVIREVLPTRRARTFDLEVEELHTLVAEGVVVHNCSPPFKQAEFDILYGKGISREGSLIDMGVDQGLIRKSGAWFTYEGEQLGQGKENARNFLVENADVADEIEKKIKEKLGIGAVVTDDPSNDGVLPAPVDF

[2] = biological target: T3, Zinc finger protein mex-5 (Caenorhabditis elegans, UniProt Q9XUB2); assay: MEX-5/TCR-2 RNA interaction inhibitors, dose response, biochemical, C. elegans, fluorescence polarization (AID 1960)
T3 sequence (Q9XUB2 whole entry): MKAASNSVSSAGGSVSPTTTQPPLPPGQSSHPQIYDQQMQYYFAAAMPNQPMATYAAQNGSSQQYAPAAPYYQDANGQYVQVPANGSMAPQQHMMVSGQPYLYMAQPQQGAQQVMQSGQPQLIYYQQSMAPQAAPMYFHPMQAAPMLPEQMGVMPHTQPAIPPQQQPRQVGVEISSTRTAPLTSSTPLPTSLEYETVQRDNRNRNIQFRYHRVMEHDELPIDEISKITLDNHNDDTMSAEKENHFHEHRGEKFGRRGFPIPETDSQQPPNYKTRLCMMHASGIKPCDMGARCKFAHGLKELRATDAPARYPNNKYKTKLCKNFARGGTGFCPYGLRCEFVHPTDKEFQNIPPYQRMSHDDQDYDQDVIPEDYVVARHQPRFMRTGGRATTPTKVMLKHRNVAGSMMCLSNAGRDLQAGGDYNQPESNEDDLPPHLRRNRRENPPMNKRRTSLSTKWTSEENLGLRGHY

[3] = biological target: Bifunctional protein GlmU (Mycobacterium tuberculosis, UniProt P9WMN3); assay: Inhibitors of Mycobacterial Glucosamine-1-phosphate acetyl transferase (GlmU). Secondary screen.; parameters: species or system Mycobacterium tuberculosis H37Rv
[4] = enhancers of respiration in Yfh1-depleted yeast, dose response, Friedreich's ataxia, plus single-dose screen (AID 1465); format: functional;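 note: yeast depleted of Yfh1p frataxin homolog grown on glycerol needing respiration; WST-1 tetrazolium dye reduction as measure of cellular dehydrogenase metabolic activity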
Albumin = Albumin (Bos taurus, UniProt P02769); assay: Counterscreen for inhibitors of T-cell receptor (TCR)-CD3 interaction: Fluorescence-based biochemical high throughput dose response assay to identify inhibitors of T-cell receptor (TCR)-CD3 interaction using a TAMRA-labeled BSA probe.; format: functional
Chain of Albumin (P02769 whole entry): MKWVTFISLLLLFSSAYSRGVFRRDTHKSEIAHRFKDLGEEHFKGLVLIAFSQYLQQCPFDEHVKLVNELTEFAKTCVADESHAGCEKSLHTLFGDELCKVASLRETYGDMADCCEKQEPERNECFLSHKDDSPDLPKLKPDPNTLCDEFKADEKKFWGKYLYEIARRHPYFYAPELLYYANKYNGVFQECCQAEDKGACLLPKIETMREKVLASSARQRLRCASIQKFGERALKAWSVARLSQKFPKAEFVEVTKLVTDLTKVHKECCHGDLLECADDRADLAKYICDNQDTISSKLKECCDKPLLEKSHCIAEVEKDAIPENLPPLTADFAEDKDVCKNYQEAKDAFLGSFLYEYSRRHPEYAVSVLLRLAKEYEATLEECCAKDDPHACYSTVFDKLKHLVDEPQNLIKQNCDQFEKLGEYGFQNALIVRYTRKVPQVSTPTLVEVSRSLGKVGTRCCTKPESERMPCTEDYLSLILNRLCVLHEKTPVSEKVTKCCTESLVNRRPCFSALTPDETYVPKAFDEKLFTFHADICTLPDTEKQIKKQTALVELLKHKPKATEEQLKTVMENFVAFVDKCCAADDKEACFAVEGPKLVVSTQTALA

Chain of Bifunctional protein GlmU (P9WMN3 whole entry): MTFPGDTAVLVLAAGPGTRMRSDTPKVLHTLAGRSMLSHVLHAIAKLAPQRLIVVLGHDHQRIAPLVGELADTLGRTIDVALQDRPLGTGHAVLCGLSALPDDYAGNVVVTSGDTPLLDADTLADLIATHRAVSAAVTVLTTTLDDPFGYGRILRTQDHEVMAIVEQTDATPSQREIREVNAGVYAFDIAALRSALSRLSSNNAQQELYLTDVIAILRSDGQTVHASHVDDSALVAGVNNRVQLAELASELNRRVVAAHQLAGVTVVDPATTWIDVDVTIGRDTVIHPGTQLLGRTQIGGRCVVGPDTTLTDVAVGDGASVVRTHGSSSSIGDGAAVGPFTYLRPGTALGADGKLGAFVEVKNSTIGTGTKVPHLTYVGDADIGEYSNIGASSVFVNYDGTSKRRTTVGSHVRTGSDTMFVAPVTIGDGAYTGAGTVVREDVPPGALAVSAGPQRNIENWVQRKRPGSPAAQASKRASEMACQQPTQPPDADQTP

SMILES	IC50 [1]	EC50 (Protein RecA)	EC50 [2]	IC50 [3]	EC50 [4]	IC50 (Albumin)
COC(=O)c1ccc(-c2ccc(C(c3c(C)[nH][nH]c3=O)c3c(C)[nH][nH]c3=O)o2)cc1	23.9 µM (active)	0.348 µM (active)	–	–	–	–
Oc1ccc(/C=N/NC(=S)Nc2cccnc2)c(O)c1O	–	–	0.086 µM (active)	83 µM (active)	> 100 µM (active)	> 94.1 µM (inactive)
